Source: patent US20240301090A1, “COMPOSITIONS AND METHODS FOR TREATING A MEDICAL CONDITION” (priority 2021, published 2024)

Columns and labels:
GnRH receptor (GnRHR) = biological target: T1, GnRH receptor (GnRHR) (Mus musculus, UniProt Q01776); experiment: Egr1 mRNA induction as readout of GnRHR binding in αT3-1 cells; type: cell-based, murine; set-up: endogenous in cells; host or cells: αT3-1 gonadotrope cell line; details: αT3-1 gonadotrope cells
T1 sequence (Q01776 1-327): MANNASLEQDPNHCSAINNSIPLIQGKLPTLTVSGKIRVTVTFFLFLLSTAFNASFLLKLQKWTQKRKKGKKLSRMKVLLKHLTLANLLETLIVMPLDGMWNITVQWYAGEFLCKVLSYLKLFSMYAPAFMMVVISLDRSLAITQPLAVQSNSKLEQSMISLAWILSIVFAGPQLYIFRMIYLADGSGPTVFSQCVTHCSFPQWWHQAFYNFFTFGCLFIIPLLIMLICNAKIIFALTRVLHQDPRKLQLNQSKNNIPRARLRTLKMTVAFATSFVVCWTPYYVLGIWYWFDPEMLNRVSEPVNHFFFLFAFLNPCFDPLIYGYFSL
Procedure: (§1) Following 48 hours, cell were sorted by FACS to determine the numbers of cells expressing each fluorescent protein in a quantitative manner. The mCherry expression was detected in 58% of the αT3-1 gonadotrope cells, and in 3% of the MEFs.
RT-PCR—Real-time quantitative PCR was performed following RNA extraction (Trizol, Invitrogen followed by Zymo RNA purification kit+DNase) and reverse transcriptase (qScript cDNA synthesis kit, Quanta) using polymerase (2×qPCRBIO Fast qPCR SyGreen Blue Mix, Hi-ROX, PCR Biosystems) and the primers shown in Table 2 hereinbelow. Values were calculated using DNA standard curves and normalized to levels of Rplp0.
(§2) To test whether the newly designed GnRH-carrier might deliver DNA specifically to GnRH receptor-expressing cells, it was first applied to αT3-1 gonadotrope cells and Egr1 mRNA levels measured as a readout for GnRHR binding. […] Following, cells were sorted and counted by FACS to determine the number of cells expressing the delivered DNA in an unbiased manner. After optimization, the number of gonadotrope cells that were transfected reached around 58%, while only 3% of MEF cells expressed the mCherry (FIG. 12B). Assuming 80% of the αT3-1 indeed express the GnRH receptor, the targeting was successful in 72.5% of the GnRH receptor-expressing cells.

αT3-1 gonadotrope cells = experiment: mCherry DNA delivery in mixed culture, FACS: αT3-1 gonadotrope cells; type: cell-based, murine; details: for delivery of DNA into the cells: GnRH-crosslinked peptides; for αT3-1 gonadotrope cells expressing mCherry: mixed 1:10 with MEFs, 1.5 hours incubation, FACS after 48 hours
Procedure: as §1
(§3) Transfection with delivery peptides—Mixed cell cultures, in which the gonadotropes comprise ˜10% of the cells, as in the pituitary gland, were transferred to media without FCS or antibiotics and pre-incubated for 1.5 hours prior to transfection. The DNA: peptide mix (ratio 1:5; for every 1 μg DNA [mCherry or KRAB-Sf1], 5 μg peptide was used) was incubated for 5 minutes and then added to the cells. Following 1.5 hours the media was removed and replaced with fresh complete media. Cells were collected 24-48 hours later for counting by FACS to determine specificity and efficacy of the delivery, or after 2 weeks for gene expression analysis by qPCR. Further optimization in the mixed cell cultures utilized GnRH-crosslinked Peptide2 mixed 1:10 with non-crosslinked Peptide 2 to attain maximal efficiency and targeting specificity.
as §2

MEFs = experiment: mCherry DNA delivery in mixed culture, FACS: MEFs; type: cell-based; details: mixed culture with αT3-1, 1.5 hours incubation, FACS after 48 hours
Procedure: as §1
as §3, with “Further optimization in the mixed cell cultures utilized GnRH-crosslinked Peptide2 mixed 1:10 with non-crosslinked Peptide 2 to attain maximal efficiency and targeting specificity.” left out
To test whether the newly designed GnRH-carrier might deliver DNA specifically to GnRH receptor-expressing cells, it was first applied to αT3-1 gonadotrope cells and Egr1 mRNA levels measured as a readout for GnRHR binding. […] Following, cells were sorted and counted by FACS to determine the number of cells expressing the delivered DNA in an unbiased manner. […]

[1] = tested on: T2, Boc-Arg-Val-Arg-Arg-MCA reporter peptide substrate
T2 sequence: RVRR

MEF cells = experiment: DNA delivery into MEF cells (qPCR of GFP transcript); type: cell-based; details: CPP packaged with DNA construct
Procedure: (§4) FIG. 9A is a schematic representation of the CPP (NF51) cross-linked to GnRH using this approach and then packaged with the DNA. In FIG. 9B, LβT2 or MEF cells were treated with the NF51-DNA alone, or after its crosslinking to GnRH Lys6. PCR was carried out as in FIG. 8E. Also shown are mRNA levels in samples that lacked the reverse transcriptase (RT).
The delivery delivery proteins—the minimal delivery protein (MDP) chimeric protein (protamine and NLS, SEQ ID NO: 89) was synthesized by GL Biochem. It was crosslinked to GnRH Lys6 analog (SEQ ID NO: 9, Sigma), via the Lys^6 of the GnRH and the C-terminal Cys of the above protein using sulfo-GMBS. The crosslinked protein was dialyzed against PBS. NF51 ([stearyl-AGYLLG]-delta-[…], SEQ ID NO: 103 conjugated through Gly6 to the δ-NH2 group of ornithine 1 of SEQ ID NO: 100) was purchased commercially (Icosagen) and cross-linked to GnRH Lys6 using Traut reagent (Pierce) followed by sulfo-GMBS (Thermo Fisher). Peptide 1 comprises the same CPP sequence as NF51 with a terminal cysteine (stearyl-AGYLLG)-delta-[…]-NH2, SEQ ID NO: 103 conjugated through Gly6 to the δ-NH2 group of ornithine 1 of SEQ ID NO: 101) for direct cross-linking, and Peptide 2 contains also the PACE cleavage (stearyl-AGYLLG)-delta-[…]-NH2, SQ ID NO: 103 conjugated through Gly6 to the δ-NH2 group of ornithine 1 of SEQ ID NO: 102). […]

LβT2 cells = experiment: DNA delivery into LβT2 cells (qPCR of GFP transcript); type: cell-based; details: CPP packaged with DNA construct
Procedure: FIG. 8A is a schematic representation of a MDP containing protamine as a cell penetrating peptide (CPP), a NLS sequence and C-terminal cysteine cross-linked to GnRHLys6. […] Results are shown as mean±SEM, n=3. […] In FIG. 8E, LβT2 cells were treated with the MDP at two concentrations (200 ng DNA+300 ng MDP or 1 μg DNA+1.5 μg MDP), or 200 ng DNA was transfected using Polyjet reagent (positive control). Following 72 hours, RNA was extracted, purified and treated with DNAse, and qPCR performed using primers targeting the adaptor and GFP, and then by nested PCR targeting just the GFP. Results are shown as mean±SEM, n=3.
as §4
The delivery delivery proteins—the minimal delivery protein (MDP) chimeric protein (protamine and NLS, SEQ ID NO: 89) was synthesized by GL Biochem. It was crosslinked to GnRH Lys6 analog (SEQ ID NO: 9, Sigma), via the Lys^6 of the GnRH and the C-terminal Cys of the above protein using sulfo-GMBS. The crosslinked protein was dialyzed against PBS. […]

[2] = biological target: T3, Boc-Arg-Val-Arg-Arg-MCA reporter peptide substrate
T3 chain: RVRR

Molecule: (stearyl-AGYLLG)-delta-OINLKALAALAKKILC-NH2 [Peptide 1]
- Egr1 mRNA activation (GnRHR binding) (GnRH receptor (GnRHR)): also activated the receptor
- delivery of DNA into the cells (αT3-1 gonadotrope cells): could deliver some DNA into the cells

Molecule: (stearyl-AGYLLG)-delta-OINLKALAALAKKILRVRRC-NH2 [GnRH Lys6-Peptide 2]
- Egr1 mRNA activation (GnRHR binding) (GnRH receptor (GnRHR)): activated Egr1 mRNA
- MEFs expressing mCherry (MEFs): 3%
- delivery of DNA into the cells (αT3-1 gonadotrope cells): could deliver some DNA into the cells
- successful targeting of GnRH receptor-expressing cells (αT3-1 gonadotrope cells; assuming 80% of the αT3-1 express the GnRH receptor): 72.5%
- specificity of DNA delivery to gonadotropes (αT3-1 gonadotrope cells; compared with peptide without PACE4 cleavage site): much more specific to gonadotropes
- αT3-1 gonadotrope cells expressing mCherry (αT3-1 gonadotrope cells): 58%
- αT3-1 gonadotrope cells expressing mCherry (αT3-1 gonadotrope cells; listed as Peptide 2): around 58%

Molecule: PACE4 secreted by LβT2 gonadotrope cells (in conditioned medium)
- fluorescence on cleavage of the substrate (380 nm ex/460 nm em) [1]: cutting the reporter and emitting fluorescence at a much higher level than seen in the incubation media of MEF cells

Molecule: [stearyl-AGYLLG]-delta-OINLKALAALAKKIL [NF51, reference compound]
- transfection of MEF cells (MEF cells): highly efficient
- transfection of LβT2 gonadotrope cells (LβT2 cells): highly efficient

B1: PACE4 secreted by PANC-1 pancreatic cells (in conditioned medium) (protein)
chain: QVRSDPQALYFNDPIWSNMWYLHCGDKNSRCRSEMNVQAAWKRGYTGKNVVVTILDDGIERNHPDLAPNYDSYASYDVNGNDYDPSPRYDASNENKHGTRCAGEVAASANNSYCIVGIAYNAKIGGIRMLDGDVTDVVEAKSLGIRPNYIDIYSASWGPDDDGKTVDGPGRLAKQAFEYGIKKGRQGLGSIFVWASGNGGREGDYCSCDGYTNSIYTISVSSATENGYKPWYLEECASTLATTYSSGAFYERKIVTTDLRQRCTDGHTGTSVSAPMVAGIIALALEANSQLTWRDVQHLLVKTSRPAHLKASDWKVNGAGHKVSHFYGFGLVDAEALVVEAKKWTAVPSQHMCVAASDKRPRSIPLVQVLRTTALTSACAEHSDQRVVYLEHVVVRTSISHPRRGDLQIYLVSPSGTKSQLLAKRLLDLSNEGFTNWEFMTVHCWGEKAEGQWTLEIQDLPSQVRNPEKQGKLKEWSLILYGTAEHPYHTFSAHQSRSRMLELSAPELEPPKAALSPSQVEVPEDEEDYTAQSTPGSANILQTSVCHPECGDKGCDGPNADQCLNCVHFSLGSVKTSRKCVSVCPLGYFGDTAARRCRRCHKGCETCSSRAATQCLSCRRGFYHHQEMNTCVTLCPAGFYADESQKNCLKCHPSCKKCVDEPEKCTVCKEGFSLARGSCIPDCEPGTYFDSELIRCGECHHTCGTCVGPGREECIHCAKNFHFHDWKCVPACGEGFYPEEMPGLPHKVCRRCDENCLSCAGSSRNCSRCKTGFTQLGTSCITNHTCSNADETFCEMVKSNRLCERKLFIQFCCRTCLLAG
- fluorescence on cleavage of the substrate [2]: cutting the reporter and emitting fluorescence at a much higher levels than the HEK cells
